Literature values in US7659400B2, “Radiolabelled benzamide analogues, their synthesis and use in diagnostic imaging” (Washington University, priority 2003, dated 2010).

Experiments:
σ1 receptors = σ1 receptors (Homo sapiens, UniProt Q99720); details: cited from earlier work
σ2 receptors = σ2 receptors (Homo sapiens, UniProt Q5BJF2); details: cited from earlier work
σ2 receptors, sequence (Q5BJF2 whole entry): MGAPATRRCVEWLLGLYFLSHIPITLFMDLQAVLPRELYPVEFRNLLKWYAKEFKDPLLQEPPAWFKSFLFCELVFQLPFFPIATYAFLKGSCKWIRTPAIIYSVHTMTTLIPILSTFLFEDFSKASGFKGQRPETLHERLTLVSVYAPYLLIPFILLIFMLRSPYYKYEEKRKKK

σ1 receptors, sequence (Q99720 whole entry): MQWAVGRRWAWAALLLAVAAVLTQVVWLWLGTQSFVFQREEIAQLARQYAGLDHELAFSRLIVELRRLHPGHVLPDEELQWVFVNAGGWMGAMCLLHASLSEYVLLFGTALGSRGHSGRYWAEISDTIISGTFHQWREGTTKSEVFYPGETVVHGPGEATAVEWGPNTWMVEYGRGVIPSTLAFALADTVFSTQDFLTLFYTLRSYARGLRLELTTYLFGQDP

## O=C(Cc1cccc(Br)c1)NC1CCN(Cc2ccc(F)cc2)CC1 [YUN-143, N-(4-fluorobenzyl)piperidinyl-4-(3-bromophenyl) acetamide]
σ1 receptors
  affinity for σ1 receptors (in words): high affinity
σ2 receptors
  affinity for σ2 receptors (in words): high affinity
